pIC50: −log10 of the molar value.
These compounds were tested against human lung tryptase (assay: β-Tryptase In-Vitro Enzyme Assay). Conditions: human lung tryptase 1 nM, substrate H-D-HHT-Ala-Arg-pNa 500 μM, pH 7.4, room temperature.
Format: biochemical
Description: The β-tryptase assay was conducted with human lung tryptase (Cortex Biochem #CP3033) in an aqueous buffer (10 mM Tris, 10 mM Hepes, 150 mM NaCl, 0.1% PEG 8000, pH 7.4) using the chromogenic substrate H-D-HHT-Ala-Arg-pNa. […] Percent inhibition was calculated by comparing the initial reaction velocity of samples without inhibitor to those with inhibitor. The initial reaction velocities were analyzed using Microsoft Excel.

Row | SMILES | pIC50
1 | COc1ccc2c(Cl)c(C(=O)N3CCC4(CC3)COc3ccc(CN)cc34)sc2c1 [Cpd 209, 1-(3-chloro-6-methoxy-benzo[b]thien-2-yl)carbonyl-5′-aminomethyl-spiro[piperidine-4,3′-(2H)-benzo[b]furan]] | 6.48
2 | NCc1ccc2c(c1)C1(CCN(C(=O)c3ccc(-c4ccccc4)s3)CC1)CO2 [Cpd 114, 1-(5-phenyl-thien-2-yl)carbonyl-5′-aminomethyl-spiro[piperidine-4,3′-(2H)-benzo[b]furan]] | 6.62
3 | NCc1ccc2c(c1)C1(CCN(C(=O)c3ccc4c(c3)S(=O)(=O)c3ccccc3C4=O)CC1)CO2 [Cpd 7, 1-(9-oxo-10,10-dioxo-thioxanthen-3-yl)carbonyl-5′-aminomethyl-spiro[piperidine-4,3′-(2H)-benzo[b]furan]] | 6.11
4 | NCc1ccc2c(c1)C1(CCN(C(=O)Cc3ccc(Br)cc3)CC1)CO2 [Cpd 93, 1-(4-bromo-benzyl)carbonyl-5′-aminomethyl-spiro[piperidine-4,3′-(2H)-benzo[b]furan]] | 6.46
5 | COC(=O)c1cccc(S(=O)(=O)N2CC3(CCN(C(=O)c4ccc(C#Cc5ccccc5)o4)CC3)c3cc(CN)ccc32)c1 [Cpd 344, 1-(5-phenylethynyl-furan-2-yl)carbonyl-1′-(3-methoxycarbonyl-phenyl)sulfonyl-5′-aminomethyl-spiro[piperidine-4,3′-(2H)-indole]] | 7.64
6 | NCc1ccc2c(c1)C1(CCN(C(=O)c3ccc(C#Cc4ccccc4)o3)CC1)CN2S(=O)(=O)c1cccs1 [Cpd 358, 1-(5-phenylethynyl-furan-2-yl)carbonyl-1′-thien-2-ylsulfonyl-5′-aminomethyl-spiro[piperidine-4,3′-(2H)-indole]] | 7.59
7 | NCc1ccc2c(c1)C1(CCN(C(=O)c3sc(SCc4ccccc4)c4ccccc34)CC1)CO2 [Cpd 240, 1-(3-benzylthio-benzo[c]thien-1-yl)carbonyl-5′-aminomethyl-spiro[piperidine-4,3′-(2H)-benzo[b]furan]] | 8.74
8 | NCc1ccc2c(c1)C1(CCN(C(=O)Cc3cccc(Br)c3)CC1)CO2 [Cpd 95, 1-(3-bromo-benzyl)carbonyl-5′-aminomethyl-spiro[piperidine-4,3′-(2H)-benzo[b]furan]] | 5.49
9 | NCc1ccc2c(c1)C1(CCN(C(=O)c3ccc(C#Cc4ccccc4)o3)CC1)NC2=O [Cpd 317, 1-(5-phenylethynyl-furan-2-yl)carbonyl-1′-oxo-5′-aminomethyl-spiro[piperidine-4,3′-1H-isoindole]] | 8.14

The remaining lines, values ahead:

Row | pIC50 | SMILES
10 | 6.89 | NCc1ccc2c(c1)C1(CCN(C(=O)/C=C/c3cccc4ccccc34)CC1)CO2 [Cpd 188, (E)-1-(naphthalen-1-ylethenyl)carbonyl-5′-aminomethyl-spiro[piperidine-4,3′-(2H)-benzo[b]furan]]
11 | 6.19 | NCc1ccc2c(c1)C1(CCN(C(=O)/C=C\c3ccco3)CC1)CO2 [Cpd 242, (Z)-1-(furan-2-ylethenyl)carbonyl-5′-aminomethyl-spiro[piperidine-4,3′-(2H)-benzo[b]furan]]
12 | 5.82 | NCc1ccc2c(c1)C1(CCN(C(=O)/C=C/c3ccoc3)CC1)CO2 [Cpd 251, (E)-1-(furan-3-ylethenyl)carbonyl-5′-aminomethyl-spiro[piperidine-4,3′-(2H)-benzo[b]furan]]
13 | 5.82 | COc1ccc(/C=C/C(=O)N2CCC3(CC2)COc2ccc(CN)cc23)cc1 [Cpd 185, (E)-1-(4-methoxy-phenylethenyl)carbonyl-5′-aminomethyl-spiro[piperidine-4,3′-(2H)-benzo[b]furan]]
14 | 6.13 | NCc1ccc2c(c1)C1(CCN(C(=O)/C=C/c3ccc(F)cc3)CC1)CO2 [Cpd 182, (E)-1-(4-fluoro-phenylethenyl)carbonyl-5′-aminomethyl-spiro[piperidine-4,3′-(2H)-benzo[b]furan]]
15 | 6.22 | NCc1ccc2c(c1)C1(CCN(C(=O)/C=C/c3cccc(OC(F)(F)F)c3)CC1)CO2 [Cpd 167, (E)-1-(3-trifluoromethoxy-phenylethenyl)carbonyl-5′-aminomethyl-spiro[piperidine-4,3′-(2H)-benzo[b]furan]]

From patent US8158792B2, “Spiropiperidines for use as tryptase inhibitors” (Janssen Pharmaceutica N.V., priority 2007, dated 2012)
